Source: US12692261B2, “Substituted heterocyclic compounds and therapeutic uses thereof” (Bayer Aktiengesellschaft, priority 2020, dated 2026)
Where two headings read alike, the source gives them in different places.

Experiments:
[1] = target: T1, full-length human CSNK1A1 (Homo sapiens, UniProt P48729); experiment: CSNK1A1 Assay 2 (ADP-Glo, 1 μM ATP, substrate biotin-Ahx-KRRRAL-pS-VASLPGL); type: biochemical; details: Table 3, read-out: CSNK1A1 Assay 2 IC50 [mol/l] (median)
T1 construct: N-terminal Glutathion-S-Transferase (GST) and full-length human CSNK1A1; purchased Life Technologies PV4174; host or cells: baculovirus infected insect cells
T1 sequence (P48729 whole entry): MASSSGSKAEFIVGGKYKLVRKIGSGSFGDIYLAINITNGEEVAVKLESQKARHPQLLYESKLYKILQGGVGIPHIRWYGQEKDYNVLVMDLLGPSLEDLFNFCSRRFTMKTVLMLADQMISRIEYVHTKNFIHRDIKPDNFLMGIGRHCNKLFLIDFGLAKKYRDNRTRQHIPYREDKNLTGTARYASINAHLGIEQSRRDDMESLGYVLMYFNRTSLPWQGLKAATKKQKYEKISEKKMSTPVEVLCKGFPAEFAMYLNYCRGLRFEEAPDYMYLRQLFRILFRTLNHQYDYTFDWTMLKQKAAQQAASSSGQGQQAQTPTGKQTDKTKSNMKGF
Protocol: CSNK1A1-inhibitory activity of compounds of the present invention in presence of 1 μM adenosine-tri-phosphate (ATP) was quantified employing the CSNK1A1 assay as described in the following paragraphs. In essence, the enzyme activity is measured by quantification of the adenosine-di-phosphate (ADP), which is generated as a co-product of the enzyme reaction, via the “ADP-Glo™ Kinase Assay” kit from the company Promega. This detection system works as follows: In a first step the ATP not consumed in the kinase reaction is quantitatively converted to cAMP employing an adenylate cyclase (“ADP-Glo-reagent”), then the adenylate cyclase is stopped and the ADP generated in the kinase reaction converted to ATP which generates in a luciferase-based reaction a glow-luminescence signal (“Kinase Detection Reagent”).
Recombinant fusion protein of N-terminal Glutathion-S-Transferase (GST) and full-length human CSNK1A1, expressed by baculovirus infected insect cells and purified via Glutathion affinity chromatography, was purchased from Life Technologies (product no. PV4174) and used as enzyme. As substrate for the kinase reaction the biotinylated peptide biotin-Ahx-KRRRAL-pS-VASLPGL (C-terminus in amide form) was used which can be purchased e.g. from the company Biosyntan (Berlin-Buch, Germany).
For the assay 50 nl of a 100 fold concentrated solution of the test compound in DMSO was pipetted into a white 1536-well microtiter plate (Greiner Bio-One, Frickenhausen, Germany), 2 μL of a solution of CSNK1A1 in aqueous assay buffer [50 mM HEPES pH 7.5, 10% (v/v) glycerol, 10 mM MgCl2, 50 mM NaCl, 1 mM dithiothreitol, 0.01% (w/v) bovine serum albumin, 0.01% (v/v) Triton X-100] were added and the mixture was incubated for 15 min at 22° C. to allow pre-binding of the test compounds to the enzyme before the start of the kinase reaction. […] The concentration of CSNK1A1 was adjusted depending of the activity of the enzyme lot and was chosen appropriate to have the assay in the linear range, a typical concentrations are about 0.0375 ng/μL. The reaction was stopped by the addition of 2.5 μL of “ADP-Glo-reagent” (1:1.5 fold diluted with water) and the resulting mixture was incubated at 22° C. for 1 h to convert the ATP not consumed in the kinase reaction completely […]. Subsequently 2.5 μL of the “kinase detection reagent” (1.2 fold more concentrated than recommended by the producer) were added, the resulting mixture was incubated at 22° C. for 1 h and then the luminescence measured with a suitable measurement instrument (e.g. Viewlux™ from Perkin-Elmer). The amount of emitted light was taken as a measure for the amount of ADP generated and thereby for the activity of the CSNK1A1.

[2] = target: T2, wild-type Epidermal Growth Factor Receptor (EGFR) (Homo sapiens, UniProt P00533); experiment: WT-EGFR Kinase Assay (TR-FRET, 2 mM ATP); type: biochemical
T2 construct: a fragment of human EGFR (amino acids R669 to A1210); made in house; host or cells: Sf9 insect cells
T2 sequence (P00533 669-1210): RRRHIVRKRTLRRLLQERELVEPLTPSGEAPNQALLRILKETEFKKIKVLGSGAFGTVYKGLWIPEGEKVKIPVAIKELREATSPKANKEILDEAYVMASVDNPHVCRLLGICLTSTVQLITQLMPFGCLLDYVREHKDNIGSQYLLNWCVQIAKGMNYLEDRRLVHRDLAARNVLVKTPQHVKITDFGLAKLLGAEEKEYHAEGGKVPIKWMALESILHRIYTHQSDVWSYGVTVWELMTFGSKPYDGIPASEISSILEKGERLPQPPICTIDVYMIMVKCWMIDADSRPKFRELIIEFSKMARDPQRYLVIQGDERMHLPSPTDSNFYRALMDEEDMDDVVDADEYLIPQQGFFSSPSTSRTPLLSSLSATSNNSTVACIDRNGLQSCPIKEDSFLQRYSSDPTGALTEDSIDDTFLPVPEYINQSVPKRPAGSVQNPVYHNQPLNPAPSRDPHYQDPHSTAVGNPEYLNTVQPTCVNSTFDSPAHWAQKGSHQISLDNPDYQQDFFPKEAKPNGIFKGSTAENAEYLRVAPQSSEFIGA
Source text: Inhibitory activity of compounds of the present invention against wild-type Epidermal Growth Factor Receptor (EGFR) was quantified employing the TR-FRET based EGFR assay as described in the following paragraphs.
Recombinant fusion protein of N-terminal Glutathion-S-Transferase (GST) and a fragment of human EGFR (amino acids R669 to A1210), expressed in Sf9 insect cells and purified via affinity chromatography using Glutathion Sepharose as described above, was used as kinase. As substrate for the kinase reaction the biotinylated peptide biotin-Ahx-[…] (C-terminus in amide form) was used which can be purchased e.g. form the company Biosynthan GmbH (Berlin-Buch, Germany).
For the assay 50 nl of a 100 fold concentrated solution of the test compound in DMSO was pipetted into either a black low volume 384 well microtiter plate or a black 1536 well microtiter plate (both Greiner Bio-One, Frickenhausen, Germany), 2 μL of a solution of EGFR in aqueous assay buffer [50 mM Hepes pH 7.0, 10 mM MgCl2, 1 mM dithiothreitol, 0.5 mM EGTA, 0.3 mM activated sodium ortho-vanadate, 0.005% (w/v) bovine serum albumin, 0.005% (v/v) Tween-20] were added and the mixture was incubated for 15 min at 22° C. to allow pre-binding of the test compounds to the enzyme before the start of the kinase reaction. […] The concentration of EGFR was adjusted depending of the activity of the enzyme lot and was chosen appropriate to have the assay in the linear range, typical concentration was 7.6 pg/μL. The reaction was stopped by the addition of 3 μL of a solution of HTRF detection reagents (83.3 nM streptavidine-XL665 [Cisbio Bioassays, Codolet, France] and 1.67 nM PT66-Tb-Cryptate, a terbium-cryptate labelled anti-phospho-tyrosine antibody from Cisbio Bioassays [instead of the PT66-Tb-cryptate PT66-Eu-Chelate from Perkin Elmer can also be used]) in an aqueous EDTA-solution (133.3 mM EDTA, 0.2% (w/v) bovine serum albumin in 50 mM HEPES pH 7.5).
The resulting mixture was incubated 1 h at 22° C. to allow the binding of the biotinylated phosphorylated peptide to the streptavidine-XL665 and the PT66-Tb-Cryptate. Subsequently the amount of phosphorylated substrate was evaluated by measurement of the resonance energy transfer from the PT66-Tb-Cryptate to the streptavidine-XL665. Therefore, the fluorescence emissions at 620 nm and 665 nm after excitation at 337 nm were measured in a HTRF reader, e.g. a Pherastar (BMG Labtechnologies, Offenburg, Germany) or a Viewlux (Perkin-Elmer). The ratio of the emissions at 665 nm and at 622 nm was taken as the measure for the amount of phosphorylated substrate.

[3] = EGFR Wildtyp 2 mM ATP IC50 [mol/l] (median), Table 4
[4] = read-out: EGFR Wildtyp 2 mM ATP IC50 [mol/l] (median), Table 4

SMILES	IC50 [1] [nM]	IC50 [2, 3] [nM]	IC50 [2, 4] [nM]
COc1cc(F)nc2c(-c3ccccn3)c(-c3ccnc(NC(=O)C(CC(F)F)c4ccc(F)cc4)c3)[nH]c12 (racemic) [Example 39, (rac)-4,4-difluoro-N-{4-[5-fluoro-7-methoxy-3-(pyridin-2-yl)-1H-pyrrolo[3,2-b]pyridin-2-yl]pyridin-2-yl}-2-(4-fluorophenyl)butanamide]	19	> 20000	–
O=C(Nc1cc(-c2[nH]c3cccnc3c2-c2ccccc2)ccn1)C(CC(F)F)c1ccc(F)cc1 (single isomer, unassigned; (-)) [Example 23, (−)-4,4-difluoro-2-(4-fluorophenyl)-N-[4-(3-phenyl-1H-pyrrolo[3,2-b]pyridin-2-yl)pyridin-2-yl]butanamide]	33.6	> 20000	–
CC(C)(O)c1cc(F)nc2c(-c3ccccn3)c(-c3ccnc(NC(=O)C(CC(F)F)c4ccc(F)cc4)c3)[nH]c12 (racemic) [Example 98, (2RS)-4,4-difluoro-N-{4-[5-fluoro-7-(2-hydroxypropan-2-yl)-3-(pyridin-2-yl)-1H-pyrrolo[3,2-b]pyridin-2-yl]pyridin-2-yl}-2-(4-fluorophenyl)butanamide]	7.36	> 20000	–
O=C(Nc1cc(-c2[nH]c3c(N4CCNCC4)ccnc3c2-c2ccccn2)ccn1)C(CC(F)F)c1ccc(F)cc1 (single isomer, unassigned) [Example 93, (2R or S)-4,4-difluoro-2-(4-fluorophenyl)-N-{4-[7-(piperazin-1-yl)-3-(pyridin-2-yl)-1H-pyrrolo[3,2-b]pyridin-2-yl]pyridin-2-yl}butanamide]	5.35	> 20000	–
O=C(Nc1cc(-c2[nH]c3c(OCC4CC4)ncnc3c2-c2ccccn2)ccn1)C(CC(F)F)c1ccc(F)cc1 (single isomer, unassigned) [Example 129, (2R or S)—N-{4-[4-(cyclopropylmethoxy)-7-(pyridin-2-yl)-5H-pyrrolo[3,2-d]pyrimidin-6-yl]pyridin-2-yl}-4,4-difluoro-2-(4-fluorophenyl)butanamide]	4.52	9500	–
Cc1cnc2c(-c3ccccn3)c(-c3ccnc(NC(=O)C(CC(F)F)c4ccc(F)cc4)c3)[nH]c2c1 (single isomer, unassigned) [Example 8, 4,4-difluoro-2-(4-fluorophenyl)-N-{4-[6-methyl-3-(pyridin-2-yl)-1H-pyrrolo[3,2-b]pyridin-2-yl]pyridin-2-yl}butanamide]	3.01	> 20000	–
O=C(Nc1cc(-c2[nH]c3cc(F)cnc3c2-c2ccccc2)ccn1)C(CC(F)F)c1ccc(F)cc1 (single isomer, unassigned; (+)) [Example 21, (+)-4,4-difluoro-2-(4-fluorophenyl)-N-[4-(6-fluoro-3-phenyl-1H-pyrrolo[3,2-b]pyridin-2-yl)pyridin-2-yl]butanamide]	4.21	–	> 20000
COc1cnc2c(-c3ccccn3)c(-c3ccnc(NC(=O)C(CC(F)F)c4ccc(F)cc4)c3)[nH]c2n1 (single isomer, unassigned) [Example 102, 4,4-difluoro-2-(4-fluorophenyl)-N-{4-[3-methoxy-7-(pyridin-2-yl)-5H-pyrrolo[2,3-b]pyrazin-6-yl]pyridin-2-yl}butanamide]	31.1	> 20000	–
O=C(Nc1cc(-c2[nH]c3nccnc3c2-c2ccccn2)ccn1)[C@@H](CC(F)F)c1ccc(F)cc1 (single isomer, unassigned) [Example 32]	1.37	> 20000	–
O=C(Nc1cc(-c2[nH]c3cccnc3c2-c2cccc(F)n2)ccn1)C(CC(F)F)c1ccc(F)cc1 (single isomer, unassigned; (+)) [Example 27, (+)-4,4-difluoro-2-(4-fluorophenyl)-N-{4-[3-(6-fluoropyridin-2-yl)-1H-pyrrolo[3,2-b]pyridin-2-yl]pyridin-2-yl}butanamide]	1.55	–	> 20000
O=C(Nc1cc(-c2[nH]c3c(OC[C@H]4COCCO4)cc(F)nc3c2-c2ccccn2)ccn1)C(CC(F)F)c1ccc(F)cc1 (mixture of isomers) [Example 50, (2RS)—N-{4-[7-{[(2R)-1,4-dioxan-2-yl]methoxy}-5-fluoro-3-(pyridin-2-yl)-1H-pyrrolo[3,2-b]pyridin-2-yl]pyridin-2-yl}-4,4-difluoro-2-(4-fluorophenyl)butanamide]	9.34	> 20000	–
O=C(Nc1cc(-c2[nH]c3c(OCC(F)(F)F)ncnc3c2-c2ccccn2)ccn1)C(CC(F)(F)F)c1ccc(F)cc1 (single isomer, unassigned) [Example 127, (2R or S)-4,4,4-trifluoro-2-(4-fluorophenyl)-N-{4-[7-(pyridin-2-yl)-4-(2,2,2-trifluoroethoxy)-5H-pyrrolo[3,2-d]pyrimidin-6-yl]pyridin-2-yl}butanamide]	85	–	> 20000
O=C(Nc1cc(-c2[nH]c3cccnc3c2-c2ccccc2)ccn1)C(CC(F)F)c1ccc(F)cc1 (racemic) [Example 22, 4,4-difluoro-2-(4-fluorophenyl)-N-[4-(3-phenyl-1H-pyrrolo[3,2-b]pyridin-2-yl)pyridin-2-yl]butanamide]	2.37	> 20000	–
Cc1cc(F)nc2c(-c3ccccn3)c(-c3ccnc(NC(=O)C(CC(F)F)c4ccc(F)cc4)c3)[nH]c12 (single isomer, unassigned; (-)) [Example 38, (−)-4,4-difluoro-N-{4-[5-fluoro-7-methyl-3-(pyridin-2-yl)-1H-pyrrolo[3,2-b]pyridin-2-yl]pyridin-2-yl}-2-(4-fluorophenyl)butanamide]	2.26	> 20000	–
Cc1cc(F)nc2c(-c3ccccn3)c(-c3ccnc(NC(=O)C(CC(F)F)c4ccc(F)cc4)c3)[nH]c12 (racemic) [Example 36, (rac)-4,4-difluoro-N-{4-[5-fluoro-7-methyl-3-(pyridin-2-yl)-1H-pyrrolo[3,2-b]pyridin-2-yl]pyridin-2-yl}-2-(4-fluorophenyl)butanamide]	21.4	> 20000	–
